Source: article PMC4681097 (Chemistry & biology, 2011)

Biological target: PHD2_181-426 (Homo sapiens, UniProt Q9GZT9)
Assay: Photo cross-linking of purified PHD2 analysed by MALDI-MS
Assay type: binding

PHD2_181-426, sequence (Q9GZT9 181-426): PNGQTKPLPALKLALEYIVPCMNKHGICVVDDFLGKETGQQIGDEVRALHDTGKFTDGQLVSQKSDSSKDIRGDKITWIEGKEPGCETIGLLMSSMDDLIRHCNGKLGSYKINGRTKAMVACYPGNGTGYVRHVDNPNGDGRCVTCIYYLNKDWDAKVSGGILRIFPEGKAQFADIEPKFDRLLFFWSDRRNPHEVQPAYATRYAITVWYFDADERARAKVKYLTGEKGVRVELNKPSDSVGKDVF

- extent of cross-linking of PHD2 by DR025 in competition experiment: substantially reduced
SMILES: O=C(O)CNC(=O)c1nc(Cl)c2ccccc2c1O [[(1-chloro-4-hydroxyisoquinoline-3-carbonyl)-amino]-acetic acid]
